According to patent US7335632B2, “Beta-secretase inhibitors and methods of use thereof” (CoMentis, Inc., priority 2001, dated 2008):

Tests used:
[1] = target: memapsin 2 (Homo sapiens, UniProt P56817); experiment: Inhibition of memapsin 2 beta-secretase activity toward fluorogenic substrate FS-2; type: biochemical; conditions: pH 4, 37° C., 20 minutes pre-incubation, substrate FS-2, tight-binding model; read-out: M2 Ki
Experimental: Potency of compounds were determined by measurement of their inhibition of memapsin 2 activity toward a fluorescent substrate. […] Briefly, assays were performed at pH 4, 37° C., by pre-incubation of memapsin 2 enzyme with compound for 20 minutes. Activity measure was initiated by addition of a fluorogenic substrate FS-2 (Bachem Americas, Torrance, Calif.). Fluorescent signal increase over time was measured as a rate of hydrolysis of the peptide substrate.

[2] = target: Cathepsin D (Homo sapiens, UniProt P07339); experiment: Inhibition of cathepsin D activity (substrate peptide […], MALDI-TOF); type: biochemical; conditions: pH 4.1, 37 degrees C., substrate NH3-[…]-CO2, MALDI-TOF; read-out: Cath D Ki
[3] = target: T1, memapsin 1 (Homo sapiens, UniProt Q9Y5Z0); experiment: Inhibition of memapsin 1 beta-secretase activity (substrate peptide […], MALDI-TOF); type: biochemical; conditions: pH 4.1, 37 degrees C., substrate NH3-ELDLAVEFWHDR-CO2, MALDI-TOF; read-out: M1 Ki
T1 sequence (Q9Y5Z0 63-518): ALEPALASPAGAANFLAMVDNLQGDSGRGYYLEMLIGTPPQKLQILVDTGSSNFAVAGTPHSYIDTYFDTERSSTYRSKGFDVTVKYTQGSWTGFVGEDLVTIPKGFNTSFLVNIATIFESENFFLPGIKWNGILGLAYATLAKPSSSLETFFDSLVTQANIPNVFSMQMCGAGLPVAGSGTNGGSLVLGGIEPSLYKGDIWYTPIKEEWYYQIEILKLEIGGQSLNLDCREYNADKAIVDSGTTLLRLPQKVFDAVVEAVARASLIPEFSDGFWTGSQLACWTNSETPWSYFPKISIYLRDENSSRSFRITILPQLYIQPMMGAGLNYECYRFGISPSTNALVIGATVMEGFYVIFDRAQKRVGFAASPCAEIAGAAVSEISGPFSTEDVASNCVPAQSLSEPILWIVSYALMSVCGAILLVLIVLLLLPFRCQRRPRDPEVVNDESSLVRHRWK

[4] = tested on: Aβ production; experiment: Cellular Aβ IC50 determination (Aβ40 sandwich ELISA); type: cell-based; conditions: Cricetulus griseus, Chinese hamster ovary cells over-expressing human APP695 with London and Swedish mutations, 24 h
Experimental: The potency of compounds against memapsin 2 activity was determined in a cellular assay of Aβ production. […] Chinese hamster ovary cells that over-express human APP695 with the London and Swedish mutations were seeded in multi-well plates at 10% confluency. Compounds were dissolved in DMSO to concentrations near 1 mM, and diluted into culture media to a final concentration near 4 μM (final 0.4% DMSO). Compounds were diluted serially and applied to cells in multi-well plates 48 h after seeding. Incubation was continued in 5% CO2 at 37 degrees C. for 24 h. Aliquots were removed and assayed for Aβ40 content using a sandwich ELISA (BioSource International). Amount of Aβ40 over the range of concentration of compounds, relative to control incubations, were fit to a 4-parameter IC50 model.

memapsin 2, sequence (P56817 46-501): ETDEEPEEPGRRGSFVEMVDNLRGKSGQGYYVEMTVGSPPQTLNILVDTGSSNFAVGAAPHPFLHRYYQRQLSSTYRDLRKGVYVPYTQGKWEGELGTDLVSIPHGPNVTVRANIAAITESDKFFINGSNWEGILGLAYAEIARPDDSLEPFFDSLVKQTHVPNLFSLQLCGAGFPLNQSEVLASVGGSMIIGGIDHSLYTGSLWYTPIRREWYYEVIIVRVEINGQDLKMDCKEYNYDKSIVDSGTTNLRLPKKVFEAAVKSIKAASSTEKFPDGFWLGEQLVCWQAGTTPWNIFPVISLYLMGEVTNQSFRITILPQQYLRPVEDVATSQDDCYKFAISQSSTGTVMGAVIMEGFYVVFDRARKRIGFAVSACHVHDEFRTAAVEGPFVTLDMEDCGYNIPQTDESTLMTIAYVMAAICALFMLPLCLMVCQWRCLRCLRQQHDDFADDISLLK
Cathepsin D, sequence (P07339 65-412, species assumed): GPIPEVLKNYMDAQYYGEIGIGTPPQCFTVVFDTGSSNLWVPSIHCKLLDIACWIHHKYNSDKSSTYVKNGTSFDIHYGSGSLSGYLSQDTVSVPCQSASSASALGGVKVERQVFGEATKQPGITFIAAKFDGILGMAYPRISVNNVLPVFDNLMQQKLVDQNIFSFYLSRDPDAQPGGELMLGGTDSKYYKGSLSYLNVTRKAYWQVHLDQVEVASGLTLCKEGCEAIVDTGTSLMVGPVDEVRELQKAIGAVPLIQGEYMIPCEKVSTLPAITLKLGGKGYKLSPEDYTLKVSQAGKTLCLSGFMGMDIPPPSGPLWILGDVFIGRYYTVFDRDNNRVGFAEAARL

| SMILES | Ki [1] [nM] | Ki [2] [nM] | Ki [3] [nM] | IC50 [4] [nM] |
| --- | --- | --- | --- | --- |
| CC[C@@H](Cn1nc(C)cc1C)C(=O)N[C@@H](CSC)C(=O)N[C@H](CC(C)C)[C@@H](O)C[C@@H](C)C(=O)N[C@@H](C(=O)NCC(C)C)C(C)C [Structure 3] | < 100 | < 100 | 100 to 1000 | < 6000 |
| CSC[C@H](NC(=O)CCn1nc(C)cc1C)C(=O)N[C@H](CC(C)C)[C@@H](O)C[C@@H](C)C(=O)N[C@@H](C(=O)NCC(C)C)C(C)C [Structure 4] | 100 to 1000 | < 100 | 100 to 1000 | 6000 to 100000 |
| Cc1cc(C)n(CCC(=O)N[C@@H](CS(C)(=O)=O)C(=O)N[C@@H](CC(C)C)[C@@H](O)C[C@@H](C)C(=O)N[C@@H](C(=O)NCC(C)C)C(C)C)n1 [Structure 5] | < 100 | 100 to 1000 | 100 to 1000 | > 100000 |
| CC[C@@H](Cn1nc(C)cc1C)C(=O)N[C@@H](CS(C)(=O)=O)C(=O)N[C@@H](CC(C)C)[C@@H](O)C[C@@H](C)C(=O)N[C@@H](C(=O)NCC(C)C)C(C)C [Structure 7] | < 100 | < 100 | < 100 | > 100000 |
| CC[C@@H](Cn1nc(C)cc1C)C(=O)N[C@@H](C[S+](C)[O-])C(=O)N[C@@H](CC(C)C)[C@@H](O)C[C@@H](C)C(=O)N[C@@H](C(=O)NCC(C)C)C(C)C (stereo partly shown) [Structure 8] | < 100 | 100 to 1000 | < 100 | < 6000 |
| Cc1csc(COC(=O)N[C@@H](CS(C)(=O)=O)C(=O)N[C@@H](CC(C)C)[C@@H](O)C[C@@H](C)C(=O)N[C@H]2CCNC2=O)n1 [Structure 83] | > 1000 | > 1000 | > 1000 | – |
| CSC[C@H](NC(=O)OCc1nc(C)oc1C)C(=O)N[C@H](CC(C)C)[C@@H](O)C[C@@H](C)C(=O)N[C@@H](C(=O)OCc1ccccc1)C(C)C [Structure 84] | > 1000 | 100 to 1000 | > 1000 | – |
| Cc1nc(COC(=O)N[C@@H](CS(C)(=O)=O)C(=O)N[C@H](CC(C)C)[C@@H](O)C[C@@H](C)C(=O)N[C@@H](C(=O)OCc2ccccc2)C(C)C)c(C)o1 [Structure 85] | 100 to 1000 | 100 to 1000 | 100 to 1000 | – |
| Cc1nc(COC(=O)N[C@@H](CS(C)(=O)=O)C(=O)N[C@H](CC(C)C)[C@@H](O)C[C@@H](C)C(=O)N[C@@H](C(=O)NCc2cccnc2)C(C)C)c(C)o1 [Structure 87] | < 100 | 100 to 1000 | < 100 | – |
| CC[C@H](C[C@H](O)[C@@H](CC(C)C)NC(=O)[C@H](CSC)NC(=O)OCc1nc(C)oc1C)C(=O)N[C@@H](C(=O)NCC(C)C)C(C)C [Structure 89] | < 100 | < 100 | 100 to 1000 | – |
| CSC[C@H](NC(=O)OCc1nc(C)cs1)C(=O)N[C@H](CC(C)C)[C@@H](O)C[C@@H](C)C(=O)N[C@@H](C(N)=O)C(C)C [Structure 90] | > 1000 | – | – | < 6000 |
| Cc1nc(COC(=O)N[C@@H](CS(C)(=O)=O)C(=O)N[C@H](CC(C)C)[C@@H](O)C[C@@H](C)C(=O)N[C@@H](C(=O)NCc2ccccn2)C(C)C)c(C)o1 [Structure 91] | < 100 | – | – | > 100000 |
| CC[C@H](C[C@H](O)[C@@H](CC(C)C)NC(=O)[C@H](CS(C)(=O)=O)NC(=O)OCc1nc(C)oc1C)C(=O)N[C@@H](C(=O)NCC(C)C)C(C)C [Structure 92] | – | – | – | < 6000 |
| CSC[C@H](NC(=O)OCc1nc(C)oc1C)C(=O)N[C@@H](CC(C)C)[C@@H](O)C[C@@H](C)C(=O)N[C@H](C(=O)Nc1nccs1)C(C)C [Structure 96] | 100 to 1000 | < 100 | 100 to 1000 | – |
| CSC[C@H](NC(=O)[C@@H](C)Cc1nc(C)oc1C)C(=O)N[C@@H](CC(C)C)[C@@H](O)C[C@@H](C)C(=O)N[C@H](C(=O)NCC(C)C)C(C)C [Structure 97] | < 100 | < 100 | 100 to 1000 | – |
| COc1ccc(C[C@H](NC(=O)[C@H](CS(C)(=O)=O)NC(=O)OCc2nc(C)oc2C)[C@@H](O)C[C@@H](C)C(=O)N[C@H](C(=O)NCC(C)C)C(C)C)cc1 [Structure 98] | > 1000 | < 100 | 100 to 1000 | – |
